The values that follow are results of earlier work, collected in patent US20080139661A1, “Fragranted moistening fluids that destroy and/or inhibit the growth of biological organisms while minimizing a tacky build up” (Pitney Bowes Incorporated, priority 2006, published 2008).

For this data set the following is noted: at 20° C., typical value.

`O` [Water]: the surface tension entry is “around 72 dynes/cm”.
